Test results as given in PMC11912471 (Journal of Medicinal Chemistry, 2025).
Where “and” joins values, the source holds several entries; their conditions need not be identical. Equal values may be shown once. Where a name gives a salt, the structure may show the parent alone.

Experiments:
[1] = test system: Kelly neuroblastoma cells; experiment: Sulforhodamine B (SRB) cytotoxicity assay, Kelly neuroblastoma cells; type: cell-based; conditions: for activity against Kelly neuroblastoma cells (in words): 72 h; for activity against Kelly neuroblastoma cells (in words) / Cell cytotoxicity (72 hr @ 500 μM) Kelly Neuroblastoma: 500 μM; for Cell cytotoxicity (72 hr @ 500 μM) Kelly Neuroblastoma: percent cytotoxicity; for cytotoxicity at 500 µM: Kelly, 72 hrs @500 µM, supplement csv, read-out: Kelly Neuroblasoma Cells (72 hrs @500 µM) %cytotoxicity
Description: (§1) Our strategy to identify novel ODC inhibitors was to first screen new analogs for ODC inhibition at 50 μM using our in vitro enzyme activity assay and purified human ODC (Table 1). Those showing significant inhibition were then titrated to provide an ODC IC50 followed by cell-based screening against both cancer (Kelly neuroblastoma) and noncancerous (neonatal fibroblasts) cell lines. For the cancer cell line, higher cytotoxicity was desired and for the noncancerous cell line counter screen, lower cytotoxicity was desired.
(§2) Normal primary human neonatal fibroblast cells (ATCC) were maintained in DMEM medium (Gibco) supplemented with 10% heat-inactivated fetal bovine serum (Hyclone), penicillin (100 IU/mL), and streptomycin (100 μg/mL), nonessential amino acids (0.1 mM) and sodium pyruvate (1 mM). Kelly neuroblastoma cells (Sigma-Aldrich) were maintained in RPMI medium (Corning) supplemented with 10% heat-inactivated fetal bovine serum (Hyclone), penicillin (100 IU/mL), and streptomycin (100 μg/mL). Cell lines were routinely monitored for mycoplasma contamination using the MycoAlert PLUS Mycoplasma Detection Kit (Lonza).
(§3) The colorimetric sulforhodamine B (SRB) assay was used to measure cytotoxicity following treatment with ODC inhibitors. Briefly, Kelly neuroblastoma cells and normal primary human neonatal fibroblast cells were plated in transparent flat 96-well plates and allowed to attach overnight. Cells were treated with control or 500 μM ODC inhibitor for 72 h. Cells were then fixed with 10% TCA at 4 °C for 1 h, washed with deionized water, and dried at room temperature. Cells were stained with 100 μL of 0.4% SRB in 1% acetic acid for 20 min at room temperature, rinsed five times with 1% acetic acid and allowed to dry at room temperature. One hundred μL of 10 mM Tris–HCl pH 7.0 was added to each well, shaken for 10 min at room temperature and absorbance was read at 540 nm. Absorbance values were normalized relative to control readings and converted to percentage by multiplying by one hundred. The percent cytotoxicity was then determined by subtracting the relative percentage of the ODC inhibitor treated readings from the control which is 100%.

[2] = test system: normal primary human neonatal fibroblast cells; experiment: Sulforhodamine B (SRB) cytotoxicity assay, neonatal fibroblasts; type: cell-based; conditions: 500 μM; for cytotoxic activity against neonatal fibroblasts (in words): 72 h; for Cell cytotoxicity (72 hr @ 500 μM) Neonatal Fibroblasts: percent cytotoxicity
Description: as §1, §2, §3

[3] = as above; type: cell-based, human; conditions: human, normal primary neonatal fibroblast cells; 72 hrs @500 µM; supplement csv
Description: as §1, §2, §3

[4] = target: T1, purified human ODC enzyme (Homo sapiens, UniProt P11926); experiment: In vitro ODC enzyme activity assay; type: biochemical; conditions: for inhibition at 50 µM: read-out: ODC biochemical inhibition % (50 μM); for IC50: read-out: ODC biochemical inhibition IC50; for lower activity relative to racemic 7: ratio of ODC IC50s
T1 construct: His6 (C); made in house; host or cells: E. coli BL21(DE3)
T1 sequence (P11926 1-461): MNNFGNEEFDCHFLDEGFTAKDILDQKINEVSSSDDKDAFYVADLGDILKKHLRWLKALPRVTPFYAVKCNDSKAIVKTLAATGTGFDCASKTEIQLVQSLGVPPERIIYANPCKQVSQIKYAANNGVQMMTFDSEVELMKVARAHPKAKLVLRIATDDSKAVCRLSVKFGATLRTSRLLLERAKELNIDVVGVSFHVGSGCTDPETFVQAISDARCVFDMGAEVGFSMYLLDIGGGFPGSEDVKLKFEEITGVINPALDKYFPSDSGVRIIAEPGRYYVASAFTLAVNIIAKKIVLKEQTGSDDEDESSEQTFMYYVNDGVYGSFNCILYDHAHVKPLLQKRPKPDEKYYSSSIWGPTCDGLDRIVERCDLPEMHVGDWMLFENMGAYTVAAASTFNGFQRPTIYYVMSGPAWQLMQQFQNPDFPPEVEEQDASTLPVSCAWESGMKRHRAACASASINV
Description: as §1
In vitro ODC activity was measured using 100 ng of purified human ODC enzyme, as we previously described.[53],[99] ODC was incubated with increasing concentrations of inhibitors for 30 min at room temperature in a buffer containing 25 mM Tris and 0.1 mM EDTA. […] In the cell-based ODC activity assay, Kelly neuroblastoma cells that were treated with 500 μM inhibitors were harvested in a buffer containing 25 mM Tris HCl, 0.1 mM EDTA, and 2.5 mM DTT. […] For both the in vitro and cell-based assay, the microcentrifuge tubes were then placed into scintillation vials containing a piece of filter paper saturated with 200 μL of 0.1 M NaOH to capture the release of radiolabeled carbon dioxide. The samples were incubated in a 37 °C incubator while shaking for 30 min (in vitro) or 2 h (cell-based). The enzymatic reaction was stopped by adding 250 μL of 5 M sulfuric acid to each sample and incubating at 37 °C while shaking for 30 min. The microcentrifuge tubes were removed from the scintillation vials, and 5 mL of scintillation fluid was added. Disintegrations per minute (DPM) of each sample was measured using a TriCarb liquid scintillation counter (PerkinElmer). The specific ODC activity is expressed as nmol CO2/min/mg protein (in vitro) or pmol CO2/min/mg protein (cell-based). The individual ODC inhibitor IC50 values were determined using Graphpad Prism 8.

ODC = conditions: even at high (>500 μM) concentrations; no reference given; cited from earlier work
[5] = cited from earlier work

LE ([4]; ligand efficiency) | inhibition at 50 µM [4] | IC50 [4] | LE ([4]; supplement csv) | ODC inhibitory activity (in words) [4] | relative activity of S-enantiomer over R-enantiomer ([4]; 10-S-PLP vs 10-R-PLP, ODC IC50) | lower activity relative to racemic 7 [4] | Structure (SMILES) | activity against Kelly neuroblastoma cells (in words) [1] | Cell cytotoxicity (72 hr @ 500 μM) Kelly Neuroblastoma [1] | cytotoxic activity against neonatal fibroblasts (in words) [2] | Cell cytotoxicity (72 hr @ 500 μM) Neonatal Fibroblasts [2] | cytotoxicity at 72 h, 500 µM [3] | cytotoxicity at 500 µM [1] | inhibition of ODC (in words) (ODC) | pKa of amino group ([5]; ornithine α-amino group, putrescine nitrogen) | pKa printed in Figure 1 ([5]; ornithine α-amino, putrescine)
0.41 | 92% | 90 nM | 0,41 | – | – | – | Cc1ncc(COP(=O)(O)O)c(/C=N/OCC2(F)CCNC2)c1O (centres unmarked) [11-PLP, ({4-[(E)-{[(3-fluoropyrrolidin-3-yl)methoxy]imino}methyl]-5-hydroxy-6-methylpyridin-3-yl}methoxy)phosphonic acid] | disappointing neuroblastoma cellular activities | 9±13% | generally more toxic | 57±20% | 57% | – | – | – | –
– | 3% | – | – | no ODC activity | – | – | NOCCC1CCCCN1 (centres unmarked) [Compound 6] | – | – | – | – | – | – | – | – | –
0.47 | 93% | 30 nM | 0,47 | – | 8 fold | – | Cc1ncc(COP(=O)(O)O)c(/C=N/OC[C@H]2CCNC2)c1O [10-S-PLP, ({5-hydroxy-6-methyl-4-[(E)-({[(3S)-pyrrolidin-3-yl]methoxy}imino)methyl]pyridin-3-yl}methoxy)phosphonic acid] | disappointing neuroblastoma cellular activities | 11±4% | generally more toxic | 40±61% | 40% | – | – | – | –
– | 95% | 780 nM | – | – | – | – | NOCC1CNCCO1 (centres unmarked) [Compound 8] | – | 37±11% | reduced cytotoxic activity | 0±11% | 0% | 37% | – | – | –
– | – | – | – | – | – | – | NCCCCN [putrescine] | – | – | – | – | – | – | not an inhibitor | ~10.5 | ~ 10
– | 99% | 360 nM | – | – | – | – | NOCC1CCNC1 (centres unmarked) [Compound 10] | – | 66±8% | reduced cytotoxic activity | 14±10% | 14% | 66% | – | – | –
– | 99% | 770 nM | – | – | – | ~4 x | NOC[C@@H]1CCCNC1 [Compound 7-R] | – | 49±5% | reduced cytotoxic activity | 0±14% | 0% | 49% | – | – | –
– | 99% | ~180 nM and 180 nM | – | – | – | – | NOCC1CCCNC1 (centres unmarked) [Compound 7, 3-[(Aminooxy)methyl]piperidine Dihydrochloride] | – | 54±9% | reduced cytotoxic activity | 3±6% | 3% | 54% | – | – | –
– | 99% | 100 nM | – | – | – | – | NOC[C@H]1CCNC1 [Compound 10-S] | – | 52±18% | reduced cytotoxic activity | 9±8% | 9% | 52% | – | – | –
0.45 | 99% | 150 nM | 0,45 | – | – | – | Cc1ncc(COP(=O)(O)O)c(/C=N/OCCCN)c1O [APA-PLP, ({4-[(E)-[(3-Aminopropoxy)imino]methyl]-5-hydroxy-6-methylpyridin-3-yl}methoxy)phosphonic Acid] | disappointing neuroblastoma cellular activities | 24±9% | generally more toxic | 12±19% | 12% | – | – | – | –
0.41 | 96% | 160 nM | 0,41 | – | – | – | Cc1ncc(COP(=O)(O)O)c(/C=N/OC[C@@H]2CCNC2)c1O [10-R-PLP] | disappointing neuroblastoma cellular activities | 52±6% | generally more toxic | 36±17% | 36% | – | – | – | –
– | 0% | – | – | no inhibitory activity | – | – | NOC1CCNCC1 [Compound 9] | – | – | – | – | – | – | – | – | –
– | 99% | 700 nM | – | – | – | ~4 x | NOC[C@H]1CCCNC1 [Compound 7-S] | – | 65±6% | reduced cytotoxic activity | 0±15% | 0% | 65% | – | – | –
– | 99% | 210 nM | – | – | – | – | NOC[C@@H]1CCNC1 [Compound 10-R] | – | 73±12% | reduced cytotoxic activity | 16±13% | 16% | 73% | – | – | –
